{"source": "paper PMC9505123", "about": "“Zeta-Carotene Isomerase (Z-ISO) Is Required for Light-Independent Carotenoid Biosynthesis in the Cyanobacterium Synechocystis sp. PCC 6803” (Microorganisms, 2022)", "target": "T1, Synechocystis ZDS (CrtQ) (Synechocystis sp. PCC 6803, UniProt P74306)", "T1 construct": "pCDFDuet-1 MCS1, co-expressed with slr1599 (pAH587) or maize Z-ISO (pAH590) in E. coli BL21(DE3) with pAC-ZETAipi", "T1 sequence (P74306 1-489)": "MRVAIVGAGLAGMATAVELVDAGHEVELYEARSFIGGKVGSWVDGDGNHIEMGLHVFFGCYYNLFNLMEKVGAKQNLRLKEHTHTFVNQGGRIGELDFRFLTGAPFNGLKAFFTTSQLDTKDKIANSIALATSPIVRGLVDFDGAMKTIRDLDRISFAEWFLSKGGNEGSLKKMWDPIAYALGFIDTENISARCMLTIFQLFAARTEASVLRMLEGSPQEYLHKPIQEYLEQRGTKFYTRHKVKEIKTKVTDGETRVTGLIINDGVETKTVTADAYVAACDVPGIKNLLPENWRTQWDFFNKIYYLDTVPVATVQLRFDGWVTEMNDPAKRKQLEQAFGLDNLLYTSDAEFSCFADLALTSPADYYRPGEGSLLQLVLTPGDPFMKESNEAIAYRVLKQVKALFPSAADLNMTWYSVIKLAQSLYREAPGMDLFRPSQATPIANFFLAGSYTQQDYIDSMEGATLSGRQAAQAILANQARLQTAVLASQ", "experiment": "RP-HPLC of carotenoids from dark-grown E. coli co-expressing pAC-ZETAipi and Z-ISO", "format": "cell-based", "conditions": "37 °C, 24 h, substrate formed in situ by Slr1599 or maize Z-ISO, converted to cis-lycopene isomers", "data": [{"smiles": "CC(C)=CCC/C(C)=C/CC\\C(C)=C/C=C/C(C)=C/C=C/C=C(C)/C=C/C=C(/C)CC/C=C(\\C)CCC=C(C)C", "note": "[9,9′-di-cis-ζ-carotene]", "values": [{"measurement": "RP-HPLC of carotenoids from dark-grown E. coli co-expressing pAC-ZETAipi and Z-I", "result": "ζ-carotene species were almost completely absent and a variety of new carotenoid species"}]}]}
